Reference: paper PMC5518657, “Deacetylation of mycothiol-derived ‘waste product’ triggers the last biosynthetic steps of lincosamide antibiotics” (Chemical Science, 2015)

Biological target: T1, LmbF (Streptomyces lincolnensis, UniProt A9Y8R7)
T1 construct: recombinant protein; details only in ESI
Experiment: in vitro turnover of […] with and without PLP, LC-MS
Type: biochemical
Conditions: no turnover without PLP; covalent binding to the substrate amino group is proposed

T1 sequence (A9Y8R7 entry or part of it): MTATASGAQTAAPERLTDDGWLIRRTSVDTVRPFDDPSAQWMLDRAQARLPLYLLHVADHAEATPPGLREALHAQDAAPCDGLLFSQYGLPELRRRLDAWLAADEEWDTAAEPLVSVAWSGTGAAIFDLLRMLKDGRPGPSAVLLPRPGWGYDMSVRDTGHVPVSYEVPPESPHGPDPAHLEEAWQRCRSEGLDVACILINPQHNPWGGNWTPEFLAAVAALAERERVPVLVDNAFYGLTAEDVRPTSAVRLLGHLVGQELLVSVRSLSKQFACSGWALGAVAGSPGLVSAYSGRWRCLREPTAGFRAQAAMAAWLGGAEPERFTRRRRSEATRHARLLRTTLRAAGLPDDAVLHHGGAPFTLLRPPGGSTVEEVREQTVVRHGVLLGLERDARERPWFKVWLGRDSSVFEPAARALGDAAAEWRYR

Cc1ncc(COP(=O)(O)O)c(C=O)c1O [pyridoxal-5′-phosphate]
in vitro turnover of 479 with and without PLP, LC-MS: LmbF failed to carry out this reaction in the absence of PLP
